Read-outs that look alike come from different tables or passages of the source.
Assays:
Type in all cases: in vivo, human
[1] = test system: gastric ESD-induced ulcers; assay: Gastric ulcer stage by endoscopy (active, healing, scarring) after ESD and peptide application
Experimental: After the ESD procedure, a self-assembling peptide was administered to a target area in the subject. […] For every 1 cm^2 of tumor, 1 mL of self-assembling peptide RADA16, in the form of PuraMatrix™ peptide hydrogel by 3-D Matrix, LTD. (2.5 w/v percent) was applied to the ESD-induced ulcer using a catheter immediately after the procedure. A single dose proton pump inhibitor was administered in gastric ESD cases for 8 weeks beginning the morning of the procedure. Gastric ulcer stages were evaluated by endoscopy as active, healing or scarring at 1, 4, and 8 weeks after ESDs, and application of the self-assembling peptide. The primary endpoint was the rate of post-ESD bleeding. The secondary endpoints include the transitional rate to healing and scarring stages of gastric ESD-induced ulcers.

[2] = test system: artificial ulcer after ESD of early-stage esophageal cancer; assay: Stenosis prevention after endoscopic resection of esophageal cancer (artificial ulcer, 4/5 circumferential spread)
Experimental: Testing was performed on a subject having an ulcer (lesion) after an endoscopic resection of esophageal cancer. […] Endoscopic submucosal dissection was performed, which created an ulcer. […] A ⅘ circumferential spread may cause stenosis in the absence of applying a peptide solution to form a hydrogel. After confirming that there was no hemorrhaging in the artificial ulcer surface after an endoscopic resection, a catheter was passed through an endoscope, and a peptide solution such as PuraMatrix™ peptide hydrogel by 3-D Matrix, LTD. (2.5%, suitable dose (1 mL per 1 cm^2)) in a syringe was coated evenly over the ulcer surface. […] On the first week after surgery, an endoscope is used to review the area. At this time, as with the initial round, the peptide solution is coated evenly over the ulcer surface. For past cases, an endoscope was used to perform a third and fourth review of the area, in the fourth and eighth weeks, respectively, after surgery that induced stenosis, to judge the effectiveness of the peptide solution coating. […] The endoscope passage is possible in stenosis direction.

[3] = test system: ESD-induced ulcer (esophageal, gastric, colorectal ESD)
Experimental: Testing was performed in human subjects in order to determine the ability of disclosed peptides to prevent gastrointestinal obstruction. Subjects who underwent esophageal, gastric, and colorectal endoscopic submucosal dissection (ESD) by nine endoscopists participated in the testing. Subjects receiving antithrombotic therapy were included in the study, but such medications were no longer being administered prior to the procedures. Cases with perforation and coagulopathy (international normalized ratio (INR)>3) despite anticoaculation management after heparin bridge therapy (HBT) were excluded. […] After the ESD procedure, a self-assembling peptide was administered to a target area in the subject. […] For every 1 cm^2 of tumor, 1 mL of self-assembling peptide RADA16, in the form of PuraMatrix™ peptide hydrogel by 3-D Matrix, LTD. (2.5 w/v percent) was applied to the ESD-induced ulcer using a catheter immediately after the procedure. A single dose proton pump inhibitor was administered in gastric ESD cases for 8 weeks beginning the morning of the procedure. Gastric ulcer stages were evaluated by endoscopy as active, healing or scarring at 1, 4, and 8 weeks after ESDs, and application of the self-assembling peptide. The primary endpoint was the rate of post-ESD bleeding. The secondary endpoints include the transitional rate to healing and scarring stages of gastric ESD-induced ulcers. Of the 117 subjects recruited, 114 patients with 124 lesions (esophagus 18; stomach 42; colorectum 64) were enrolled for outcome analysis and […] were excluded due to perforations and […].

Arg-Ala-Asp-Ala-Arg-Ala-Asp-Ala-Arg-Ala-Asp-Ala-Arg-Ala-Asp-Ala [PuraMatrix]
Transitional rate to healing stage ([1]; at 1 week after ESD, with proton pump inhibitor): 98%
scarring stage at follow up endoscopy ([1]; at 4 weeks after ESD): 21%
scarring stage at follow up endoscopy ([1]; at 8 weeks after ESD): 97%
endoscope passage in stenosis direction ([2]; 4 weeks after surgery): possible
ulcer state by endoscope ([2]; 4 weeks after surgery, 2.5%, 1 mL per 1 cm^2, coated at surgery and at first week): scarring
endoscope passage in stenosis direction ([2]; 8 weeks after surgery): possible
side effects of the endoscopic resection (delayed hemorrhaging, perforations) ([2]; one subject, esophageal ESD): no delayed hemorrhaging or perforations
rate of post-ESD bleeding ([3]; all lesions (2/124), 2.5 w/v percent, 1 mL per 1 cm^2, by catheter immediately after ESD): 1.6%
rate of post-ESD bleeding ([3]; colorectum (1/64; 0.02% to 1.6%)): 1.6%
rate of post-ESD bleeding ([3]; esophagus): 0%
adverse effects related with the use of the self-assembling peptide ([3]; in vivo): no adverse effects
rate of post-ESD bleeding ([3]; stomach (1/43; 95% confidence interval 0.04% to 12.3%)): 2.4%

Reference: patent publication US9724448B2, “Materials for gastrointestinal obstruction prevention” (3-D MATRIX, LTD., priority 2013, dated 2017)
